According to ChEMBL document CHEMBL1201862, “PubChem BioAssay data set” (2004):
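Where inhibition never reached the appropriate level, the endpoint shown equals the highest concentration tested. Otherwise, values were interpolated linearly from a five-concentration, 48-hour dose response in 96-well plates. GI50 marks 50% less growth.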 Active and inactive are the calls of the source. Cut-off read from the data, not from the text of the source: active = GI50 up to about 1.1 µM and inactive = higher.

Tests used:
Experiment in all cases: NCI tumour cell line growth inhibition, 48 h
MCF7 = system: MCF7
UACC-62 = system: UACC-62
BT-549 = system: BT-549
HOP-92 = system: HOP-92
TK-10 = system: TK-10
NCI-H522 = system: NCI-H522
SK-MEL-2 = system: SK-MEL-2
HOP-62 = system: HOP-62
OVCAR-4 = system: OVCAR-4
SR = system: SR
UO-31 = system: UO-31
LOX IMVI = system: LOX IMVI
CAKI-1 = system: CAKI-1
RXF 393 = system: RXF 393
OVCAR-8 = system: OVCAR-8
OVCAR-3 = system: OVCAR-3
PC-3 = system: PC-3
DU-145 = system: DU-145
T47D = system: T47D
MDA-MB-231 = system: MDA-MB-231

Measured: GI50

COc1ccc(C(=O)/C=C/c2ccc3c(c2)OCO3)c(OCc2ccccc2)c1
inactive: MCF7 6.22 µM | UACC-62 17.4 µM | BT-549 4.79 µM | HOP-92 > 78 µM | TK-10 > 90.8 µM | NCI-H522 9.68 µM | SK-MEL-2 > 57.1 µM | HOP-62 > 100 µM | OVCAR-4 15.1 µM | SR 3.24 µM | UO-31 37.2 µM | LOX IMVI 7.89 µM | CAKI-1 11.8 µM | RXF 393 11 µM | OVCAR-8 7.67 µM | OVCAR-3 19.1 µM | PC-3 11.6 µM | DU-145 > 39.2 µM | T47D > 43.5 µM | MDA-MB-231 > 70.1 µM

O=C(c1ccccc1)c1ccc2c(c1)nc1n2C(c2c(Cl)cccc2Cl)SC1 (stereo not given)
inactive: MCF7 39.4 µM | UACC-62 74.1 µM | BT-549 77.1 µM | HOP-92 69 µM | TK-10 > 100 µM | NCI-H522 55.8 µM | SK-MEL-2 > 100 µM | HOP-62 > 100 µM | OVCAR-4 75.7 µM | SR 34 µM | UO-31 23.9 µM | LOX IMVI 44 µM | CAKI-1 70.6 µM | RXF 393 79.8 µM | OVCAR-8 63.7 µM | OVCAR-3 38.8 µM | PC-3 38.1 µM | DU-145 > 100 µM | T47D 14.7 µM | MDA-MB-231 > 100 µM

N=C(N)N/N=C(/c1ccccc1)c1ccc(O)cc1O
inactive: MCF7 30.7 µM | UACC-62 30.1 µM | BT-549 37.5 µM | HOP-92 36.6 µM | TK-10 31.6 µM | NCI-H522 15.3 µM | SK-MEL-2 45.7 µM | HOP-62 32 µM | OVCAR-4 57 µM | SR 20.8 µM | UO-31 46.1 µM | LOX IMVI 34.9 µM | CAKI-1 51.5 µM | RXF 393 45 µM | OVCAR-8 24.6 µM | OVCAR-3 26.9 µM | PC-3 29 µM | DU-145 33 µM | T47D 45.3 µM | MDA-MB-231 45.1 µM

N/C(=N\N=C\c1nc2ccccc2o1)c1cnccn1
inactive: MCF7 > 100 µM | UACC-62 > 100 µM | BT-549 > 100 µM | HOP-92 > 100 µM | TK-10 30.7 µM | NCI-H522 > 100 µM | SK-MEL-2 80.7 µM | HOP-62 43.2 µM | OVCAR-4 > 100 µM | SR > 100 µM | UO-31 > 100 µM | LOX IMVI > 100 µM | CAKI-1 > 100 µM | RXF 393 49.5 µM | OVCAR-8 > 100 µM | OVCAR-3 > 100 µM | PC-3 > 100 µM | DU-145 > 100 µM | T47D 51.4 µM | MDA-MB-231 51.2 µM

CN(C)c1ccc2c(SCC(=O)OCC(=O)[C@@]3(O)CC[C@H]4[C@@H]5CCC6=CC(=O)C=C[C@]6(C)[C@H]5C(=O)C[C@@]43C)c3ccc(N(C)C)cc3nc2c1
inactive: MCF7 7.03 µM | UACC-62 10.8 µM | BT-549 9.59 µM | HOP-92 30.7 µM | TK-10 16.3 µM | NCI-H522 21.8 µM | SK-MEL-2 24.5 µM | HOP-62 57.9 µM | OVCAR-4 10.9 µM | SR 1.35 µM | UO-31 10.3 µM | LOX IMVI 26.7 µM | CAKI-1 23.6 µM | RXF 393 32.7 µM | OVCAR-8 8.11 µM | OVCAR-3 5.24 µM | PC-3 20.8 µM | DU-145 11.5 µM | T47D 17.4 µM | MDA-MB-231 27.5 µM

COC(=O)C1C(=O)C=CN([C@H](C)c2ccccc2)[C@@H]1Cc1ccc(OC)c(OCc2ccccc2)c1I (stereo not given in full)
inactive: MCF7 17.6 µM | UACC-62 12.3 µM | BT-549 18.3 µM | HOP-92 3.3 µM | TK-10 23.7 µM | NCI-H522 13.6 µM | SK-MEL-2 18.9 µM | HOP-62 20.4 µM | OVCAR-4 8.83 µM | SR 3.14 µM | UO-31 12 µM | LOX IMVI 14.5 µM | CAKI-1 22 µM | RXF 393 11.8 µM | OVCAR-8 18.3 µM | OVCAR-3 14.6 µM | PC-3 13.8 µM | DU-145 18.2 µM | T47D 13.8 µM | MDA-MB-231 18.3 µM

Cc1n[nH]c(=O)n1/N=C/c1ccc([N+](=O)[O-])cc1
inactive: MCF7 > 100 µM | UACC-62 > 100 µM | BT-549 > 100 µM | HOP-92 55.3 µM | TK-10 > 100 µM | NCI-H522 > 100 µM | SK-MEL-2 > 100 µM | HOP-62 > 100 µM | OVCAR-4 > 100 µM | SR > 100 µM | UO-31 > 100 µM | LOX IMVI > 100 µM | CAKI-1 30.1 µM | RXF 393 61.2 µM | OVCAR-8 > 100 µM | OVCAR-3 > 100 µM | PC-3 > 100 µM | DU-145 > 100 µM | T47D > 100 µM | MDA-MB-231 > 100 µM
